Data: patent publication US11291684B2, “Treatment of glaucoma” (TX MEDIC AB, priority 2017, dated 2022)

How the values were obtained:
[1] = test system: laser-induced CNV; assay: Isolectin B4 and collagen IV staining of RPE/choroidal/sclera wholemounts in laser-induced CNV model; assay type: in vivo, C57BL/6J mice
Method: Mice were anaesthetized with an intraperitoneal injection of 75 mg/kg ketamine and 7.5 mg/kg xylazine. The pupils were dilated with 1% atropine and 2.5% phenylephrine (Bausch & Lomb). To induce CNV, the rupture of Bruch's membrane-choroid was achieved by laser photocoagulation using the HGM Elite 532 Green Laser (Litechnica Ltd, Middesex, UK) with the spot size of 100 μm, 250 mW power and 100 msec duration. The laser spots were placed between retinal vessels and 2 to 3 disc-diameter away from the optic disc. The formation of a bubble at the site of laser application indicates the successful rupture of Bruch's membrane. Only laser burns in which a bubble was produced were included in this study. […] Three laser burns were applied to each retina.
Immediately after CNV induction, all mice were injected subcutaneously with 500 μl of dextran sulfate or saline. The injection was repeated once daily for 9 days post laser-CNV induction.
On day 10 post-CNV induction, all mice were sacrificed and eyes were carefully removed. All eyes were fixed in 2% paraformaldehyde/PBS (Sigma-Aldrich, Dorset, UK) for 2 h at room temperature and then washed and stored in PBS at 4° C. RPE-choroid-sclera wholemounts were prepared using the protocol described. Briefly, the anterior segment of the eye, including the cornea, ciliary body, iris and the lens were removed. Five vertical cuts were made to the eye cup, and the retinal tissue was then carefully removed. The extra ocular tissues, including conjunctiva and ocular muscles were carefully removed from the eye-cup (containing RPE/choroid/sclera). The RPE/choroidal/sclera wholemounts were further processed for Griffonia simplicifolia lectin 1-isolectin B4 and collagen IV immunostaining.
CNV was detected using the well-established isolectin B4 and collagen IV labelling technique. Isolectin B4 labels both infiltrating macrophages and vascular endothelial cells. Collagen IV labels the basal lamina of blood vessels. Both markers have been used widely to detect CNV.
RPE/choroidal/sclera wholemounts were permeablized with 0.5% Triton X-100/PBS for 1 h at room temperature. The samples were then blocked with 10% BSA in 0.5% Triton X-100/PBS for 1 h and incubated with biotinylated Griffonia simplicifolia lectin 1-isolectin B4 (GSL Isolectin B4, 1:50, Vector Laboratories Ltd, UK) and collagen IV (1:50, BIO-RAD, UK) overnight at 4° C. After thorough washing in PBS (10 minutes×3), samples were incubated with streptavidin-fluorescein isothiocyanate (FITC) (1:100, Vector laboratories, UK) and goat anti rabbit AF594 (1:100, Invitrogen, UK) for two hours at room temperature. Samples were flat-mounted on glass slides with Vectashield Mounting Medium (Vector Laboratories Ltd, UK) and observed by fluorescent microscopy.
Lecia fluorescent microscope was used to acquire images from above prepared RPE-choroidal/sclera wholemount samples. A 10× objective lens was used to allow capturing the whole area of a CNV. The imaging software ImageJ was used to analyze the images. To measure the size of CNV, the border of CNV was outlined manually and the size was automatically calculated using Image J software.
All data (the size of CNV in each group) were expressed as mean±SEM. Student t test was used to compare the difference between the dextran sulfate group and the saline control group.
24 C57BL/6J mice (10˜12 weeks old) were used in this study. […]

[2] = test system: glaucomatous eyes; assay: Intraocular pressure in TGF-β-induced glaucoma model (rebound tonometer); assay type: in vivo, Sprague Dawley rats; conditions: rat, 15 mg/kg daily s.c. from day 14
Text: Raised IOP was induced by twice weekly intracameral injections of the inflammatory cytokine TGF-β over the entire time period of 28 days. This induced scarring of the trabecular meshwork (TM) drainage portals by day 14 with associated raised IOP. Daily subcutaneous dextran sulfate/saline treatments commenced at day 14.
Glaucoma was induced in adult male Sprague Dawley rats by repeat twice weekly intracameral (IC) injections of transforming growth factor-β (TGF-β) to increase intraocular pressure (IOP). Sustained increases in IOP (after two weeks) leads to death of retinal ganglion cells (30-40%). Dextran sulfate (Tikomed AB, Sweden, WO 2016/076780) was administered at 15 mg/kg by daily subcutaneous injection from […] to assess RGC protection compared to controls.
Group 1 n=12 rats; 24 eyes IOP+IC TGF-β (twice weekly for 28 days) between day 0 and day 28+ daily subcutaneous administration of dextran sulfate from day 14 to day 28.
Sixteen 8 to 10 week-old male 175-200 g Sprague Dawley rats (Charles River, Kent, UK), housed with free access to food and water under a 12 h dark/light cycle, were used for these experiments. Surgery was performed at the Biomedical Services Unit at the University of Birmingham in accordance with the Home Office guidelines set out in the 1986 Animal Act (UK) and the ARVO Statement for the Use of Animals in Ophthalmic and Vision Research. […] The post-operative welfare of all rats was monitored closely. […]
Using an iCare Tonolab rebound tonometer (Icare, Helsinki, Finland), IOP was recorded bi-weekly between 9-11 am for the duration of each experiment to avoid confounding the readings with circadian variability. Immediately after induction of anesthesia with 5% isoflurane, six rebound measurements were taken with the tonometer from the central cornea on each measurement occasion to give an overall average IOP measurement (mmHg) and all graphical data points represent the mean±SEM of 3 readings (of 6 rebounds each) taken sequentially to ensure accurate measurements.

[3] = mouse laser-CNV, day 10, 0.6 mg/ml, 500 μl s.c. once daily, mean±SEM

With dextran sulfate the “effects on the laser-induced CNV” value ([1]; dose of 0.6 mg/ml per day) was “neither anti-angiogenic nor pro-angiogenic effects”, the “difference vs saline control in lectin B4+ lesions” value ([1]; mouse laser-CNV, day 10) was “no statistical difference” and the “difference vs vehicle (saline) in collagen IV new blood vessel area” value ([1]; mouse laser-CNV, day 10) was “no statistical significant difference”. For the same substance, the “average isolectin B4 positive area” value [1, 3] was 43972±2302 μm^2, the “means of area of new blood vessels (collagen IV)” value [1, 3] was 54681±2378 μm^2 and the “IOP compared to controls” value ([2]; IC TGF-β twice weekly, day 24, vs saline) was “significantly lower (P<0.001) and normalized”. The “IOP compared to control group” value ([2]; IC TGF-β twice weekly, day 28 (end of experiment), vs saline) was “remained significantly lower” and the “time of treatment after which elevated IOP started to reduce” value ([2]; IC TGF-β) was 7 days.
